Assay results published in patent US20220218776A1, “COMPOSITION FOR USE IN A METHOD FOR PREVENTION OR TREATMENT OF MALTNUTRITION IN A SUBJECT SUFFERING FROM A CHRONIC INFLAMMATORY BOWEL DISEASES” (SOFAR S.P.A., priority 2019, published 2022).

Test system: pro-inflammatory patterns typical of IBD
Assay: depression of pro-inflammatory patterns typical of IBD
Conditions: administered alone
Description: According to an aspect of the invention, the casein (ii) contained in the mixture (M), together with (i), (iii) and (iv) (according to any of the described embodiments), is a micellar casein, i.e. in the native form thereof.

In the case of casein, the “pro-inflammatory patterns typical of IBD” value is reported as “capable of depressing pro-inflammatory patterns typical of IBD”.
